Laboratory results: article PMC9164157, “Characterization and Identification of a New Daidzein Reductase Involved in (S)-Equol Biosynthesis in Clostridium sp. ZJ6” (Frontiers in Microbiology, 2022)

Experiments:
Lac 20_92 DZNR = biological target: T1, Lac 20_92 DZNR (Lactococcus garvieae, UniProt E1CIA4); experiment: daidzein reductase assay, HPLC; type: biochemical; conditions: NAD(P)H, anaerobic, 37°C
T1 construct: gene l-dznr; synthetic gene in pETDuet-1, expressed in E. coli BL21 (DE3), purified
T1 sequence (E1CIA4 1-644): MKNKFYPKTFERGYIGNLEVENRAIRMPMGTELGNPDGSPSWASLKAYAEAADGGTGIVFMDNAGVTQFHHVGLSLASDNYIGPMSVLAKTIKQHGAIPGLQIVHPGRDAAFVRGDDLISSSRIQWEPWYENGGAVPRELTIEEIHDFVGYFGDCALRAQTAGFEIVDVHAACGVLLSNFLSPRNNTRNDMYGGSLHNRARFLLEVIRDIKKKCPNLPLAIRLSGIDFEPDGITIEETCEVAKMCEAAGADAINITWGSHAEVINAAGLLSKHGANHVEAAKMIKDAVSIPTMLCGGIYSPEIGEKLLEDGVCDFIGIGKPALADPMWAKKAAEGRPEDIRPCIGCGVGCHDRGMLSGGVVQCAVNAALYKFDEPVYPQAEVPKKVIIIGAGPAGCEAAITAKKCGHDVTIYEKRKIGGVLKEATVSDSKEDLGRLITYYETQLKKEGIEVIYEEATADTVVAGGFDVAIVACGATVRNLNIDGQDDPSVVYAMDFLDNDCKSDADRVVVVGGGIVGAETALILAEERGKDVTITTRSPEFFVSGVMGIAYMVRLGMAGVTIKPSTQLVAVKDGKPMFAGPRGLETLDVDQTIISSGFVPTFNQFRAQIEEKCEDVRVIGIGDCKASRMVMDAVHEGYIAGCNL

NATTS DZNR = biological target: T2, NATTS DZNR (Slackia sp. NATTS, UniProt H3JUE4); experiment: daidzein reductase assay, HPLC; type: biochemical; conditions: NAD(P)H, anaerobic
T2 construct: gene ddce; synthetic gene in pETDuet-1, expressed in E. coli BL21 (DE3), purified
T2 sequence (H3JUE4 1-644): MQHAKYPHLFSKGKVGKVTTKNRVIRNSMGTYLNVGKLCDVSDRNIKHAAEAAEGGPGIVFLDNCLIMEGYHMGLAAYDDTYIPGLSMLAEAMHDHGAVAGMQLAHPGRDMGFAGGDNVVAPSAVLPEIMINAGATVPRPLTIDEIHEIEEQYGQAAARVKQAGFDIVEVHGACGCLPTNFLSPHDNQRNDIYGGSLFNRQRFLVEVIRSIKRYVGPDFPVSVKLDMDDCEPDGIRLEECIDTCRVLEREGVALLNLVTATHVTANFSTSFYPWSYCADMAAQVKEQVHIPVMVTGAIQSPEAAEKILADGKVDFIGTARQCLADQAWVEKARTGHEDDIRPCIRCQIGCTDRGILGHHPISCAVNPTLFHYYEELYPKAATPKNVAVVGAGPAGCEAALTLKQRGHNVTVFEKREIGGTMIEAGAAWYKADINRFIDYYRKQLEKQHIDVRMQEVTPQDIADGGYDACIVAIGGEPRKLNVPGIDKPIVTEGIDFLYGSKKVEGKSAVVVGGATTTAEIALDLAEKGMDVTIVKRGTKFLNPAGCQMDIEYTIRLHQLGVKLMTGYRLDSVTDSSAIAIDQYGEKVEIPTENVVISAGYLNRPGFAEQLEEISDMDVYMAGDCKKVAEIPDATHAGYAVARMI

## O=c1c(-c2ccc(O)cc2)coc2cc(O)ccc12 [daidzein, 7-hydroxy-3-(4-hydroxyphenyl)-4H-chromen-4-one]
Lac 20_92 DZNR
  daidzein reductase assay, HPLC: all recombinant proteins showed DZNR activity, which is an ability to convert DZN to DHD
NATTS DZNR
  daidzein reductase assay, HPLC: all recombinant proteins showed DZNR activity, which is an ability to convert DZN to DHD
